Legend:
[1] = system: adenosine A2B receptor (CHO cells; single binding domain EPAC2 sensors); assay: single cell FRET, CHO cells expressing adenosine A2B receptor, EPAC2 sensors; assay type: cell-based; details: 24 hours after transfection, single living cells
Protocol: Transfected cells were analyzed 24 h later.

[2] = system: adenylyl cyclase; assay: FRET signal with direct activators of adenylyl cyclase in cells; assay type: cell-based
[3] = system: endogenous beta2-adrenergic receptors (HEK293 cells; murine HCN2 (A467-K638) sensor); details: 10 μM isoproterenol
Protocol: FIG. 12. […] B. FRET measurements in living HEK293 cells stimulated with 10 μM isoproterenol via endogenous beta2-adrenergic receptors. Cells were transfected with HCN2-based (A467-K638) sensor.
Samples were excited with a light from Polychrom IV (Till Photonics). […] The imaging data were analyzed by MetaMorph 5.0r6 software (Universal Imaging Corp.) and corrected for spillover of CFP into 535 nm channel, as well as for acceptor photobleaching to give a corrected ratio F535 nm/F480 nm.

SMILES: Nc1ncnc2c1ncn2[C@@H]1O[C@H](CO)[C@@H](O)[C@H]1O [adenosine]
- FRET between YFP and CFP upon adenosine [1]: decrease of FRET

SMILES: C=C[C@@]1(C)CC(=O)[C@]2(O)[C@@]3(C)[C@@H](O)CCC(C)(C)[C@@H]3[C@H](O)[C@H](OC(C)=O)[C@@]2(C)O1 [forskolin]
- FRET-signal [2]: detectable FRET-signal

SMILES: CC(C)NCC(O)c1ccc(O)c(O)c1 (stereo not drawn) [isoproterenol]
- cAMP-dependent FRET change upon isoproterenol [3]: decrease in FRET
